The record followed here is patent US8715653B2, “Modulation of Rhamm (CD168) for selective adipose tissue development” (The Regents of the University of California, priority 2006, dated 2014).

Entries after “also recorded” stand apart in the source; their conditions may differ.

The test system of experiment [1] is Rh-/- fibroblasts. Put plainly: Random motility of fibroblasts by time-lapse cinemicrography. The experiment is classed as cell-based, mouse. The protocol: (§1) Cell culture medium and culture conditions were described previously in Zhang, S., Chang, M. C., Zylka, D., Turley, S., Harrison, R., and Turley, E. A. 1998. The hyaluronan receptor RHAMM regulates extracellular-regulated kinase. J Biol Chem 273:11342-11348; and Tolg, C., et al. 2003. Genetic deletion of receptor for hyaluronan-mediated motility (Rhamm) attenuates the formation of aggressive fibromatosis (desmoid tumor). Oncogene 22:6873-6882. PDGF-BB (25 ng/ml), HA (500 ng/ml-1 mg/ml) or FCS (10%) were added to 24 hrs serum-starved, 50% sub-confluent fibroblasts on fibronectin (25 μg/ml)-coated dishes (Zhang, S., Chang, M. C., Zylka, D., Turley, S., Harrison, R., and Turley, E. A. 1998. The hyaluronan receptor RHAMM regulates extracellular-regulated kinase. J Biol Chem 273:11342-11348; Hall, C. L., Lange, L. A., Prober, D. A., Zhang, S., and Turley, E. A. 1996. pp60(c-src) is required for cell locomotion regulated by the hyaluronanreceptor RHAMM. Oncogene 13:2213-2224). […]
(§2) For experiments assessing the motogenic effects of HA and PDGF-BB, cells were plated onto fibronectin-coated tissue culture flasks at 50% sub-confluence overnight then serum-starved for 24 hrs. […] For quantifying the effect of FCS, fibroblasts were plated at 50% sub-confluence overnight onto tissue culture dishes that had been pre-coated with serum proteins. […]
(§3) Efficient repair of excisional wounds also depends upon motility speed in response to motogens present in the microenvironment (See Ridley, A. J., Schwartz, M. A., Burridge, K., Firtel, R. A., Ginsberg, M. H., Borisy, G., Parsons, J. T., and Horwitz, A. R. 2003. Cell migration: integrating signals from front to back. Science 302:1704-1709). The velocity of migration stimulated by HA (FIG. 6A) or FCS (FIGS. 9A, 9B) was assessed directly using time-lapse cinemicrography of cells cultured on fibronectin-coated 2D tissue culture surfaces (Hall, C. L., Lange, L. A., Prober, D. A., Zhang, S., and Turley, E. A. 1996. pp60(c-src) is required for cell locomotion regulated by the hyaluronanreceptor RHAMM. Oncogene 13:2213-2224). […]

Experiment [2] deals with Wt fibroblasts. The description is as above. Format: cell-based, mouse. The protocol:
as §1, §2, §3

For experiment [3], the system named is Rh-/- fibroblasts. Put plainly: Disassembly of phalloidin-positive actin stress fibers in response to PDGF-BB. Format: cell-based, mouse. From the text:
(§4) Tissue sections were stained for collagen (Masson's trichrome), α-smooth muscle actin, vimentin and tenascin following manufacturer's recommendations. Staining was quantified after counter-staining with Harris Hematoxylin (EM SCIENCE) and mounting in Cytoseal 60 (Tullberg-Reinert, H., and Jundt, G. 1999. In situ measurement of collagen synthesis by human bone cells with a sirius red-based colorimetric microassay: effects of transforming growth factor beta2 and ascorbic acid 2-phosphate. Histochem Cell Biol 112:271-276). Immunofluorescence of phospho-ERK1,2 was done as previously published (49). For the detection of droplets of neutral lipids, paraformaldehyde-fixed cells were stained with BODIPY 493/503 (25 μg/ml) (Gocze, P. M., and Freeman, D. A. 1994. Factors underlying the variability of lipid droplet fluorescence in MA-10 Leydig tumor cells. Cytometry 17:151-158). Actin stress fibers were detected with Oregon-green phalloidin.
(§5) Cell migration and invasion require the rapid assembly/disassembly of the actin cytoskeleton. Since intracellular Rhamm forms associate with the actin cytoskeleton and are required for v-src-mediated actin cytoskeleton disassembly, we compared the ability of Rh-/- fibroblasts with Rh^FL-rescued fibroblasts to disassemble phalloidin-positive actin stress fibers in response to PDGF-BB. […]

Experiment [4] concerns Wt fibroblasts. Described as above. Format: cell-based, mouse.
Text: as §4, §5

For experiment [5], the system named is rat excisional skin wounds. As to the kind of experiment: Wound site (sub-cutaneous) adipogenesis in full thickness excisional wounds covered with collagen gel. The experiment is classed as in vivo. Particulars: for adipogenesis within the wound site: rat excisional wounds, peptide in collagen gel, 14 days after wounding, histology. The protocol:
FIG. 14. Effect of a hyaluronan binding peptide on wound site (sub-cutaneous) adipogenesis. A. Full thickness excisional wounds were placed on the flanks of male Fisher rats then these were covered with collagen gels (matrix) containing either no peptide (matrix), hyaluronan binding peptide (at 200, 20 and 2 ug/woundsite) or scrambled peptide (at 200 ug/woundsite). The wound sites were excised 14 days after wounding and processed for histology. Micrographs show Mason Trichrome stained tissue sections through the center of the wounds.
Wt and Rh-/- mice (3-18 month old) or male Sprague-Dawley rats were anaesthetized by Halothane inhalation. Two full thickness wounds were placed on denuded back skin using a 4 mm metal punch. In the case of the rat experiments, 200 ul of a vitrogen solution (type 1 collagen solution that gels at 35-37C) containing no peptide, 2-200 μg hyaluronan binding peptide or scrambled peptide was used to cover the wounds. Animals were housed in individual cages for the experimental period. Wounds were harvested at varying times using a 8 mm metal punch from similar locations on the backs of mice of the same gender and age. Harvested wounds were fixed overnight in 4% paraformaldehyde and paraffin embedded as described in Tolg, C., et al. 2003. Genetic deletion of receptor for hyaluronan-mediated motility (Rhamm) attenuates the formation of aggressive fibromatosis (desmoid tumor). Oncogene 22:6873-6882;. Numbered serial sections were cut perpendicular to the wound edge starting at the wound center. The first and last sections were stained with Masson's trichrome and non-stained sections were used for immunohistochemistry. To ensure that serial sections were cut starting at the wound center, wound samples were cut in half through the wound center prior to embedding

For experiment [6], the system named is uninjured skin of male Fisher rats. Put plainly: Subcutaneous fat after injection in collagen solution under uninjured skin. Format: in vivo. The note with it: uninjured rat skin, injected in type 1 collagen solution, harvested 4, 7 and 14 days after injection. The protocol: 0.2 , 2 and 20 ug of hyaluronan binding peptide or scrambled peptide were mixed in 1 ml of type 1 collagen solution, (3 mg/m1) and 0.25 ml of the solution was injected under the skin on the flanks of 3 month old male Fisher rats. Hair at the site of injection was removed prior to injection using Nair for marking purposes. Injection sites were harvested by skin punches at 4, 7 and 14 days after injection.

[7] abbreviates: listed as Hyaluronan binding peptides.

Consider `COc1cccc(-c2cc(=O)c3ccccc3o2)c1N` [PD98059], for which the “effect on motility in response to PDGF-BB” value is listed as “no effect” in the experiment on Rh-/- fibroblasts [1] and “significantly inhibit” in the experiment with Wt fibroblasts [2] (Wt fibroblasts, PDGF-BB). Moreover, the “effect on random motility in the presence of FCS” value in the experiment on Wt fibroblasts [2] (primary Wt fibroblasts, FCS) is recorded as “significantly reduce motility”. Also, the results for the “effect on actin disassembly in response to PDGF-BB” value in the experiment with Rh-/- fibroblasts [3] and with Wt fibroblasts [4] were “no effect” and “significantly inhibit”, respectively.

Turning to “STMMRSHKTRSHHV (Hyaluronan binding peptide.)”, in experiment [5] (rat excisional skin wounds), the “concentrations that increase subcutaneous adipogenesis” value is reported as 20-200 μg/wound site. Moreover, the “adipogenesis within the wound site” value in experiment [5] was “filled with adipocytes”; in experiment [5] (setting [7]), “promoted adipogenesis; also recorded: increase subcutaneous adipogenesis”. For the same molecule, the “subcutaneous fat / accumulation of adipocytes at injection site” value in experiment [6] is “increases subcutaneous fat”; in experiment [6] (setting [7]) it was “promoted adipogenesis”.
